Source: ChEMBL document CHEMBL1828583, “Discovery process and pharmacological characterization of a novel dual orexin 1 and orexin 2 receptor antagonist useful for treatment of sleep disorders” (Bioorg Med Chem Lett, 2011)
The source made the active and inactive calls. The calls are words filed in the database; no cut-off is given here.

Tests used:
[1] = tested on: Liver microsomes; assay: Intrinsic clearance in human liver microsomes; assay type: ADME, Microsome
[2] = target: T1, Orexin/Hypocretin receptor type 1 (Rattus norvegicus, UniProt P56718); assay: Antagonist activity at recombinant rat OX1R expressed in CHO cells by FLIPR calcium based functional assay; assay type: cell-based
T1 sequence (P56718 whole entry): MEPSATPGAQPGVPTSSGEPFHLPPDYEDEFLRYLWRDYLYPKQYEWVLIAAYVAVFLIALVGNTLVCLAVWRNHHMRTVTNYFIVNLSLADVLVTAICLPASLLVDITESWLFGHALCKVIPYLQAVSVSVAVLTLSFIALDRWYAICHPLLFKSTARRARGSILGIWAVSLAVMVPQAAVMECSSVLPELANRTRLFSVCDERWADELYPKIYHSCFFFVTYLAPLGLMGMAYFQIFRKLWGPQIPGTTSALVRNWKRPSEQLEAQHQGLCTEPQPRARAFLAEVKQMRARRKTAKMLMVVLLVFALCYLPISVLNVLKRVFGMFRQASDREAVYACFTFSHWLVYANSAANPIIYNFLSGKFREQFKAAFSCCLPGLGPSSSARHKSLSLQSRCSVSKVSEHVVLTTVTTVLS

[3] = target: T2, Orexin/Hypocretin receptor type 1 (Homo sapiens) (UniProt O43613); assay: Agonist activity at recombinant human OX1R expressed in CHO cells at 1 uM; assay type: functional, cell-based
T2 sequence (whole entry): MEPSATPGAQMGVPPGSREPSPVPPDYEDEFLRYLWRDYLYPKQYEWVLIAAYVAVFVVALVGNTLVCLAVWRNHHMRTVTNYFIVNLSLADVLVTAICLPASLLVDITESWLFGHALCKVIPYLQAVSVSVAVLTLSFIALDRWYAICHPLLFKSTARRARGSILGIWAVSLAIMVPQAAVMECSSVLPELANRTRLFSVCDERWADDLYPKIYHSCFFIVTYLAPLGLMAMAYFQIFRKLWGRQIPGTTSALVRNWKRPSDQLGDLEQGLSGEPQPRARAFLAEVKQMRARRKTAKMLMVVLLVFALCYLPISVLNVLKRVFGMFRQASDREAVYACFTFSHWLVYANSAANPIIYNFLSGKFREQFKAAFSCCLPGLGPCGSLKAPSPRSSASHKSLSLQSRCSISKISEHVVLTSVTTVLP

[4] = target: T3, Orexin/Hypocretin receptor type 1 (Rattus norvegicus) (UniProt P56718); assay: Agonist activity at recombinant rat OX1R expressed in CHO cells at 1 uM; assay type: functional, cell-based
T3 sequence (whole entry): T1 sequence (P56718 whole entry)

[5] = Plasma clearance in CD rat at 1 mg/kg, iv and 3 mg/kg, po; assay type: ADME, organism-based
[6] = Half life in CD rat at 1 mg/kg, iv and 3 mg/kg, po; assay type: ADME, organism-based; conditions: in vivo
[7] = Oral bioavailability in CD rat at 3 mg/kg; assay type: ADME, organism-based; conditions: in vivo
[8] = Cmax in CD rat at 1 mg/kg, iv and 3 mg/kg, po; assay type: ADME, organism-based; conditions: in vivo
[9] = Fraction unbound in CD rat plasma at 1 mg/kg, iv after 1 hrs; assay type: ADME, organism-based; set-up: dose 1 mg/kg, route intravenous
[10] = Fraction unbound in CD rat brain at 1 mg/kg, iv after 1 hrs; assay type: ADME, organism-based; set-up: dose 1 mg/kg, route intravenous
[11] = tested on: Rattus norvegicus; assay: Hypnotic activity in CD rat Circadian time model assessed as total sleep time at 10 mg/kg, po administered during active phase (reference value: 81 +/- 11 mins); assay type: functional
[12] = tested on: Rattus norvegicus; assay: Hypnotic activity in po dosed CD rat Circadian time model assessed as total sleep time measured during active phase after 5 hrs; assay type: functional, organism-based
[13] = tested on: Rattus norvegicus; assay: Hypnotic activity in po dosed CD rat Circadian time model assessed as non-rapid eye movement sleep administered during active phase measured from starting time CT18; assay type: functional, organism-based
[14] = tested on: Rattus norvegicus; assay: Hypnotic activity in CD rat Circadian time model assessed as awake period at 3 mg/kg, po administered during active phase measured from starting time CT18 (reference value: 218 +/- 11.32 mins); assay type: functional
[15] = tested on: Rattus norvegicus; assay: Hypnotic activity in CD rat Circadian time model assessed as awake period at 10 mg/kg, po administered during active phase measured from starting time CT18 (reference value: 218 +/- 11.32 mins); assay type: functional
[16] = tested on: Rattus norvegicus; assay: Hypnotic activity in CD rat Circadian time model assessed as non-rapid eye movement latency period at 3 mg/kg, po administered during active phase measured from starting time CT18 (reference value: 46.1 +/- 10.0 mins); assay type: functional
[17] = tested on: Rattus norvegicus; assay: Hypnotic activity in CD rat Circadian time model assessed as non-rapid eye movement latency period at 30 mg/kg, po administered during active phase measured from starting time CT18 (reference value: 46.1 +/- 10.0 mins); assay type: functional
[18] = tested on: Rattus norvegicus; assay: Hypnotic activity in CD rat Circadian time model assessed as non-rapid eye movement sleep at 3 mg/kg, po administered during active phase measured from starting time CT18 (reference value: 78.1 +/- 11.3 mins); assay type: functional
[19] = tested on: Rattus norvegicus; assay: Hypnotic activity in CD rat Circadian time model assessed as non-rapid eye movement sleep at 10 mg/kg, po administered during active phase measured from starting time CT18 (reference value: 78.1 +/- 11.3 mins); assay type: functional
[20] = tested on: Rattus norvegicus; assay: Hypnotic activity in CD rat Circadian time model assessed as non-rapid eye movement sleep at 30 mg/kg, po administered during active phase measured from starting time CT18 (reference value: 78.1 +/- 11.3 mins); assay type: functional
[21] = tested on: Rattus norvegicus; assay: Hypnotic activity in CD rat Circadian time model assessed as rapid eye movement latency period at 3 mg/kg, po administered during active phase measured from starting time CT18 (reference value: 146.3 +/- 54.2 mins); assay type: functional
[22] = tested on: Rattus norvegicus; assay: Hypnotic activity in CD rat Circadian time model assessed as rapid eye movement sleep at 3 mg/kg, po administered during active phase measured from starting time CT18 (reference value: 3.22 +/- 0.73 mins); assay type: functional
[23] = tested on: Rattus norvegicus; assay: Hypnotic activity in CD rat Circadian time model assessed as rapid eye movement sleep at 10 mg/kg, po administered during active phase measured from starting time CT18 (reference value: 3.22 +/- 0.73 mins); assay type: functional
[24] = tested on: Rattus norvegicus; assay: Hypnotic activity in CD rat Circadian time model assessed as rapid eye movement sleep at 30 mg/kg, po administered during active phase measured from starting time CT18 (reference value: 3.22 +/- 0.73 mins); assay type: functional
[25] = tested on: Rattus norvegicus; assay: Neurotoxicity in CD rat assessed as impairment of motor coordination at 1 to 10 mg/kg, po by rotarod test; assay type: toxicity, organism-based; set-up: dose 1-10 mg/kg, route oral; conditions: in vivo
[26] = tested on: Rattus norvegicus; assay: Neurotoxicity in CD rat assessed as impairment of motor coordination at 1 to 10 mg/kg, po by rotarod test in presence of 1 g/kg, ip ethanol; assay type: toxicity, organism-based; set-up: dose 1-10 mg/kg, route oral; conditions: in vivo

## Cc1nc(C(=O)N2CCCC[C@H]2CNC(=O)c2cccc3occc23)c(-c2ccc(F)cc2)s1 [SB-649868]
[1]
  CL: 15.1 mL/min/g
[2]
  Ki: 0.117 nM
[3]
  Activity: inactive
[4]
  Activity: inactive
[5]
  clearance: 24 mL/min/kg
[6]
  half-life: < 36 min
[7]
  bioavailability: 85%
[8]
  Cmax: 333 ng/mL
[9]
  fraction unbound at 1 h: 0.0134
[10]
  fraction unbound at 1 h: 0.0528
[11]
  Time: 182 min
[12]
  Activity: Dose-dependent effect
[13]
  Activity: Dose-dependent effect
[14]
  Time: 194 min
[15]
  Time: 117 min
[16]
  Time: 19 min
[17]
  Time: 8.3 min
[18]
  Time: 99.3 min
[19]
  Time: 165.2 min
[20]
  Time: 186.6 min
[21]
  Time: 30.1 min
[22]
  Time: 6.5 min
[23]
  Time: 17.7 min
[24]
  Time: 24.1 min
[25]
  Activity: Non-toxic
[26]
  Activity: Non-toxic
